Laboratory results from the kinase profiling compilation of Christmann-Franck et al. (2016).

Columns and labels:
Test in all cases: KINOMEscan competition binding
CLK2 (human) = CLK2 (human) (UniProt P49760)
RAF1 (human) = RAF1 (human) (UniProt P04049)
PTK2B (human) = PTK2B (human) (UniProt Q14289)
CaMK1 (human) = CaMK1 (human) (UniProt Q14012)
MINK1 (human) = MINK1 (human) (UniProt Q8N4C8)
TSSK1B (human) = TSSK1B (human) (UniProt Q9BXA7)
MYLK3 (human) = MYLK3 (human) (UniProt Q32MK0)
NLK (human) = NLK (human) (UniProt Q9UBE8)
IKBKB (human) = IKBKB (human) (UniProt O14920)
PIK3CG (human) = PIK3CG (human) (UniProt P48736)
AXL (human) = AXL (human) (UniProt P30530)
MLTK (human) = MLTK (human) (UniProt Q9NYL2)
FER (human) = FER (human) (UniProt P16591)
MAP3K2 (human) = MAP3K2 (human) (UniProt Q9Y2U5)
YES1 (human) = YES1 (human) (UniProt P07947)
MAP3K12 (human) = MAP3K12 (human) (UniProt Q12852)
STK33 (human) = STK33 (human) (UniProt Q9BYT3)
MATK (human) = MATK (human) (UniProt P42679)
MAP3K3 (human) = MAP3K3 (human) (UniProt Q99759)
TEK (human) = TEK (human) (UniProt Q02763)
SRC (human) = SRC (human) (UniProt P12931)
HIPK3 (human) = HIPK3 (human) (UniProt Q9H422)
MET (human) = MET (human) (UniProt P08581)
Sequence of MET (human) (P08581 whole entry, looked up): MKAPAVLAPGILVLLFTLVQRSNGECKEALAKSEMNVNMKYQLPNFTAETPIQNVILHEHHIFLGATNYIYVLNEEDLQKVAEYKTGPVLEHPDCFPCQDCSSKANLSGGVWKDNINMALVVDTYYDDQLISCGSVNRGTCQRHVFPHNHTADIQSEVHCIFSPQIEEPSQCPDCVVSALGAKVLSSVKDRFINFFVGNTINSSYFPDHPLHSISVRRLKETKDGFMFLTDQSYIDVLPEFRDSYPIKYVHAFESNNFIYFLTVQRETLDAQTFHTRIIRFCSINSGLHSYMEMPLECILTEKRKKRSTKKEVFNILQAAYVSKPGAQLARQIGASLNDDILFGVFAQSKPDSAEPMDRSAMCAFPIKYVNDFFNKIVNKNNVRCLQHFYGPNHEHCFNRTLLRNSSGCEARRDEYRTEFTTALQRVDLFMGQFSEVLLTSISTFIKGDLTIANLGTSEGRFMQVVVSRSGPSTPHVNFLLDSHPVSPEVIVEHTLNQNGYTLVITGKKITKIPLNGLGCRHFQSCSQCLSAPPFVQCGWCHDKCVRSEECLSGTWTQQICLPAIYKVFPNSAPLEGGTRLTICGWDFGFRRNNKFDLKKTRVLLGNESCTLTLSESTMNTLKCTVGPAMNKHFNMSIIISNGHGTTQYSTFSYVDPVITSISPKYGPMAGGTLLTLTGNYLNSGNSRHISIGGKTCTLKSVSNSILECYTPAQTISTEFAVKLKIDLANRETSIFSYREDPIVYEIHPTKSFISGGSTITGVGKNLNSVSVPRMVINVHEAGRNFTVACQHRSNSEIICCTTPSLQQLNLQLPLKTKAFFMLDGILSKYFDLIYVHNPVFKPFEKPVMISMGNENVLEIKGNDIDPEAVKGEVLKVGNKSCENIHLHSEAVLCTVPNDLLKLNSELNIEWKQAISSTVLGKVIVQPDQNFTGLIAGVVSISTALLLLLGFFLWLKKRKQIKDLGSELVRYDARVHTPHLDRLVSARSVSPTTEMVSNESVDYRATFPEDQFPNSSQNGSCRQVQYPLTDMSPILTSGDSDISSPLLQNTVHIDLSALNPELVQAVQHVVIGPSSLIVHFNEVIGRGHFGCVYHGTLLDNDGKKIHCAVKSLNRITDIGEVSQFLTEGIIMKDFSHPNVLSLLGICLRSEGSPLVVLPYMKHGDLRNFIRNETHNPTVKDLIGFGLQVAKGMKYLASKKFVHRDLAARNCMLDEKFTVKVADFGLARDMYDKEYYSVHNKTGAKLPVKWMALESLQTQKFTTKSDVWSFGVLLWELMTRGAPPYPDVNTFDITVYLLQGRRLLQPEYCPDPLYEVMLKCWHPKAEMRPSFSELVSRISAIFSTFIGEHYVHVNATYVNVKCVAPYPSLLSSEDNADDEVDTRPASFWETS

CDK11B (human) = CDK11B (human) (UniProt P21127)
ULK3 (human) = ULK3 (human) (UniProt Q6PHR2)
Sequence of ULK3 (human) (Q6PHR2 whole entry, looked up): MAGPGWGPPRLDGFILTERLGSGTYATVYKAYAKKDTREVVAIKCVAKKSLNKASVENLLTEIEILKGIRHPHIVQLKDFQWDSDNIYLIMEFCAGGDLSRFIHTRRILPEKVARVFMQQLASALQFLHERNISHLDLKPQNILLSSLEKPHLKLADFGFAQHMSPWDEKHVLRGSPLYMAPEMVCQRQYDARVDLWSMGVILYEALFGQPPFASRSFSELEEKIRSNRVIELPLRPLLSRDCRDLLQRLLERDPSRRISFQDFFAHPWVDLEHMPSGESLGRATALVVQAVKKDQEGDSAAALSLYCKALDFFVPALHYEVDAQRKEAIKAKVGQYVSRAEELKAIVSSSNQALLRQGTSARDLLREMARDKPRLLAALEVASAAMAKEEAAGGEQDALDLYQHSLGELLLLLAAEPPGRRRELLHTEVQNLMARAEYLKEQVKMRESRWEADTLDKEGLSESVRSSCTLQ

[1] = target: ABL1 (human), P00519 [Y253F]
MYO3A (human) = MYO3A (human) (UniProt Q8NEV4)
SLK (human) = SLK (human) (UniProt Q9H2G2)
GAK (human) = GAK (human) (UniProt O14976)
MAP4K5 (human) = MAP4K5 (human) (UniProt Q9Y4K4)
Sequence of MAP4K5 (human) (Q9Y4K4 whole entry, looked up): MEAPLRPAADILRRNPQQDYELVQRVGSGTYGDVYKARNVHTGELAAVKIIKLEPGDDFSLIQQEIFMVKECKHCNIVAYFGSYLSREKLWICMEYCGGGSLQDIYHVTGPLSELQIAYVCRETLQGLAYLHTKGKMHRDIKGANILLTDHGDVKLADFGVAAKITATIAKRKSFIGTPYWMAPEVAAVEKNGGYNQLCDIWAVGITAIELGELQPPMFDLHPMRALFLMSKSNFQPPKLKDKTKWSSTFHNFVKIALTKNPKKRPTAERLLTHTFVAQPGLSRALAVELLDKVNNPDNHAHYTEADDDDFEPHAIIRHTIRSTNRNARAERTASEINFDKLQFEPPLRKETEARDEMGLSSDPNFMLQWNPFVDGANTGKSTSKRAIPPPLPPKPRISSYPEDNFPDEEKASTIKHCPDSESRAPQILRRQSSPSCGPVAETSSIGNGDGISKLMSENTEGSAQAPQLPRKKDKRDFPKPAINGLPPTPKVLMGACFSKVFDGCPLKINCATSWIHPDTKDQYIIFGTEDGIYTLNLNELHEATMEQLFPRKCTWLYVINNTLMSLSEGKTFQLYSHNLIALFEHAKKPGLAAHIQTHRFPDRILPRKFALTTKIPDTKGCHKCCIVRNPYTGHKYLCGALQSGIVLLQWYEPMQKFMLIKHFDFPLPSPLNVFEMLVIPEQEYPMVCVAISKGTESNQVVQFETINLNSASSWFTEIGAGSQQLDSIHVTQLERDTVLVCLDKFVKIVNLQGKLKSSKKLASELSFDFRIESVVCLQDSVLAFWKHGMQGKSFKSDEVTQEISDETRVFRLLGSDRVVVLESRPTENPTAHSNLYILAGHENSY

FYN (human) = FYN (human) (UniProt P06241)
Sequence of FYN (human) (P06241 whole entry, looked up): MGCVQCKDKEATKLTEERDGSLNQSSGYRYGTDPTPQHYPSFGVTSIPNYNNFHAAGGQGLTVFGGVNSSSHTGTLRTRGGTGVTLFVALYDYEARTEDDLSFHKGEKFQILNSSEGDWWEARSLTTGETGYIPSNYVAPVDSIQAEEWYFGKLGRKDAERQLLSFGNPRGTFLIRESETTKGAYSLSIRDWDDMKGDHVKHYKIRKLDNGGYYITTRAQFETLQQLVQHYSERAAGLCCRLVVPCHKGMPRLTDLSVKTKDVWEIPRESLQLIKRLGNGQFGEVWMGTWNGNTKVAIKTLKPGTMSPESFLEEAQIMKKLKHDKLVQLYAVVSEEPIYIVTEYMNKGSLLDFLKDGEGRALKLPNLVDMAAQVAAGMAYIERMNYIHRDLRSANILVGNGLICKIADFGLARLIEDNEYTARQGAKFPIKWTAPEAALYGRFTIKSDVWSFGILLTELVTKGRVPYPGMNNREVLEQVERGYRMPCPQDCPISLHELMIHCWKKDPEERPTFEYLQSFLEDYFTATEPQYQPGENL

MAP4K3 (human) = MAP4K3 (human) (UniProt Q8IVH8)
MAP3K9 (human) = MAP3K9 (human) (UniProt P80192)
Sequence of MAP3K9 (human) (P80192 whole entry, looked up): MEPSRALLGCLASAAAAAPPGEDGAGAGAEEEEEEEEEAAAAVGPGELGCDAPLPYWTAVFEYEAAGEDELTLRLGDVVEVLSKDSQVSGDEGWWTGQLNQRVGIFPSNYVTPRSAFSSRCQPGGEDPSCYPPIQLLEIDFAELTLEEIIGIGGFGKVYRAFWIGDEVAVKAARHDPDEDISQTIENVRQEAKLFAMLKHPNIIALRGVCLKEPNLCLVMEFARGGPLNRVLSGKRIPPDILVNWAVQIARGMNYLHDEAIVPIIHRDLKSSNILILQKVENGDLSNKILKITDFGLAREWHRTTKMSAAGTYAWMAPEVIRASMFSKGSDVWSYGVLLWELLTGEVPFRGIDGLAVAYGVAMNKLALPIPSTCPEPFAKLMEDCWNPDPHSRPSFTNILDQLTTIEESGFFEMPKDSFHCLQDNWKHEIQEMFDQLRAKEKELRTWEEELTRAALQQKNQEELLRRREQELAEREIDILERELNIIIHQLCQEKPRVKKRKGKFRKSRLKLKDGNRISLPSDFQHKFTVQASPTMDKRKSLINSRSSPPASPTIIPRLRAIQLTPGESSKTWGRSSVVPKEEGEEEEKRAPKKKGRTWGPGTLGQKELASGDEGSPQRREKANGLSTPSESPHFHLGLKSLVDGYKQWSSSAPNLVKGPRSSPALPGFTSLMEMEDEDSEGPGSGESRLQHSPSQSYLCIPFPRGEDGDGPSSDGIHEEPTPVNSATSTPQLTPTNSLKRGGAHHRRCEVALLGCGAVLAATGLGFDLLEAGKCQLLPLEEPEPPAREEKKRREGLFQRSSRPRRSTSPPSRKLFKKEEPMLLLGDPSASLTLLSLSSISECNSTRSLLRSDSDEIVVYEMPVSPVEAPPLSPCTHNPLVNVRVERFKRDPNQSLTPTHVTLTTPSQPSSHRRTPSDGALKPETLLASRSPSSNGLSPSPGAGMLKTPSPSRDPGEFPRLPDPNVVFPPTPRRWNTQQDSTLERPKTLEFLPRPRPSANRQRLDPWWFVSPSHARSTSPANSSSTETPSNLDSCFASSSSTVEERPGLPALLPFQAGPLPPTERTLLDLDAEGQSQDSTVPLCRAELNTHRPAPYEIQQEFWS

SIK1 (human) = SIK1 (human) (UniProt P57059)
PRKACA (human) = PRKACA (human) (UniProt P17612)
RPS6KA2 KD2 (human) = RPS6KA2 KD2 (human) (UniProt Q15349)
Sequence of RPS6KA2 KD2 (human) (Q15349 whole entry, looked up): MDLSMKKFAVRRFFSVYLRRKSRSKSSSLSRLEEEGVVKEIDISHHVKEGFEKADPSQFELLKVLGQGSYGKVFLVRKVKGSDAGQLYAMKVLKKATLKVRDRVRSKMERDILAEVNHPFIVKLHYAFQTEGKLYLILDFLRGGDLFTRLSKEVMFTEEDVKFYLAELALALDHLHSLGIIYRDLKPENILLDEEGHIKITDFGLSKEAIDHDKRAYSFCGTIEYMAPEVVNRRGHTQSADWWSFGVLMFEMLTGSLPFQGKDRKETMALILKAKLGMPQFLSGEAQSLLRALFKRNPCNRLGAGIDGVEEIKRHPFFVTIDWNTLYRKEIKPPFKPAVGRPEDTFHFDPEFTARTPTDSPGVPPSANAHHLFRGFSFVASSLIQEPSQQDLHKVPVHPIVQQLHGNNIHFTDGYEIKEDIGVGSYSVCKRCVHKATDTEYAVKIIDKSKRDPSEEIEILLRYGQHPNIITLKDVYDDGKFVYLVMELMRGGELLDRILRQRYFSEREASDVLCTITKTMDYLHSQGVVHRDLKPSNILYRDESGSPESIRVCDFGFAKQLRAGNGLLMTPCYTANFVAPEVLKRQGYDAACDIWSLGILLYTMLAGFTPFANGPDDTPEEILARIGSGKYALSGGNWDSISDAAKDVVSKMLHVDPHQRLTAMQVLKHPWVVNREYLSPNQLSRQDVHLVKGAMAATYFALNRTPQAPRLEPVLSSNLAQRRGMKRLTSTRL

STK36 (human) = STK36 (human) (UniProt Q9NRP7)
TYRO3 (human) = TYRO3 (human) (UniProt Q06418)
MAPK10 (human) = MAPK10 (human) (UniProt P53779)
CSK (human) = CSK (human) (UniProt P41240)
LYN (human) = LYN (human) (UniProt P07948)

Kd (CLK2 (human)): 21000 nM | Kd (RAF1 (human)): 39 nM | Kd (PTK2B (human)): 6600 nM | Kd (CaMK1 (human)): 8800 nM | Kd (MINK1 (human)): 360 nM | Kd (TSSK1B (human)): 26000 nM | Kd (MYLK3 (human)): 26000 nM | Kd (NLK (human)): 270 nM | Kd (IKBKB (human)): 960 nM | Kd (PIK3CG (human)): 30000 nM | Kd (AXL (human)): 2700 nM | Kd (MLTK (human)): 8.2 nM | Kd (FER (human)): 200 nM | Kd (MAP3K2 (human)): 13000 nM | Kd (YES1 (human)): 160 nM | Kd (MAP3K12 (human)): 35000 nM | Kd (STK33 (human)): 18000 nM | Kd (MATK (human)): 26000 nM | Kd (MAP3K3 (human)): 11000 nM | Kd (TEK (human)): 130 nM | Kd (SRC (human)): 99 nM | Kd (HIPK3 (human)): 120 nM | Kd (MET (human)): 510 nM | Kd (CDK11B (human)): 270 nM | Kd (ULK3 (human)): 13000 nM | Kd [1]: 3 nM | Kd (MYO3A (human)): 15000 nM | Kd (SLK (human)): 20 nM | Kd (GAK (human)): 2300 nM | Kd (MAP4K5 (human)): 29 nM | Kd (FYN (human)): 130 nM | Kd (MAP4K3 (human)): 2300 nM | Kd (MAP3K9 (human)): 1500 nM | Kd (SIK1 (human)): 1800 nM | Kd (PRKACA (human)): 13000 nM | Kd (RPS6KA2 KD2 (human)): 33000 nM | Kd (STK36 (human)): 4700 nM | Kd (TYRO3 (human)): 1500 nM | Kd (MAPK10 (human)): 88 nM | Kd (CSK (human)): 700 nM | Kd (LYN (human)): 2 nM
Compound: COc1cc2ncnc(Oc3cccc(NC(=O)Nc4cc(C(C)(C)C(F)(F)F)on4)c3)c2cc1OC
